This assay deals with RXF-631 renal. In words: inhibition of tumour cell growth, NCI panel, 48 h.

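Step 1: Grow cells in 96-well plates. Step 2: Expose to compound for 48 hours at 5 concentrations. Step 3: Interpolate endpoints linearly; if unreached, use highest concentration. TGI denotes the concentration required for complete inhibition of growth.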

Take `O=C1c2ccccc2C(=O)c2c(O)c(NCCCNCCO)cc(O)c21`: the TGI was found to be 25 µM.

The compound `C=CCc1cc(-c2cc(CC=C)c(O)c(CN(CC)CC)c2)cc(CN(CC)CC)c1O` returned a TGI of 44.5 µM.
